Assay [1] relates to BMSC (primary human bone marrow mesenchymal stromal cells). Description: absolute EC50 for viability; higher = less sensitive.
For assay [2] the test system is unchanged. Description: drug sensitivity score (DSS); higher = more sensitive.

As for `Nc1nc(NC2CC2)cc(-c2cccc(Cl)c2Cl)n1` [TH588], the “absolute EC50 for viability” value in assay [1] is over 25 µM. In assay [2], this compound came in with a drug sensitivity score of 0.

Turning to `CS(=O)(=O)N1CCN(Cc2cc3nc(-c4cccc5[nH]ncc45)nc(N4CCOCC4)c3s2)CC1` [Pictilisib], in assay [1], the “absolute EC50 for viability” value was determined as 1.28 µM. Moreover, the drug sensitivity score in assay [2] stood at 11.

Regarding `CNC(=O)CN1CCC(Oc2cc3c(Nc4cccc(Cl)c4F)ncnc3cc2OC)CC1` [Sapitinib], in assay [1], the “absolute EC50 for viability” value was over 1 µM. Also, the drug sensitivity score in assay [2] is 0.

`CC#CC(=O)N1CCC[C@H]1c1nc(-c2ccc(C(=O)Nc3ccccn3)cc2)c2c(N)nccn12` [Acalabrutinib]: in assay [1], the “absolute EC50 for viability” value is over 1 µM. In assay [2], this compound returned a drug sensitivity score of 0.

For `O=C(c1ccc(C(=O)N2CCC(N3CCCC3)CC2)c(Nc2ccccc2)c1)N1CCC(N2CCCC2)CC1` [UNC1215], in assay [1], the “absolute EC50 for viability” value is over 10 µM. The same compound had a drug sensitivity score in assay [2] of 0.

Consider `C=C(c1ccc(C(=O)O)cc1)c1cc2c(cc1C)C(C)(C)CCC2(C)C` [Bexarotene], for which the “absolute EC50 for viability” value in assay [1] was over 10 µM. This compound also returned a drug sensitivity score in assay [2] of 0.

With `CCN(CC)CCCC(C)Nc1c2ccc(Cl)cc2nc2ccc(OC)cc12` (centres undefined) [Mepacrine], in assay [1], the “absolute EC50 for viability” value was 1.58 µM. In addition, the drug sensitivity score in assay [2] was 17.7.

On to `O=C(/C=C\n1cnc(-c2cc(C(F)(F)F)cc(C(F)(F)F)c2)n1)NNc1ccccn1` [Verdinexor], for which, in assay [1], the “absolute EC50 for viability” value was over 1 µM. In assay [2], this compound had a drug sensitivity score of 1.6.

On to `COc1ccc(S(=O)(=O)Nc2cccnc2Nc2ccc(O)cc2)cc1` [ABT-751], for which the “absolute EC50 for viability” value in assay [1] was over 10 µM. This compound showed a drug sensitivity score in assay [2] of 5.5.

With `COc1cc2ncnc(Oc3cccc(NC(=O)Nc4cc(C(C)(C)C(F)(F)F)on4)c3)c2cc1OC`, the “absolute EC50 for viability” value in assay [1] is over 10 µM. In assay [2], this compound displayed a drug sensitivity score of 4.6.

As for `CN[C@@H]1C[C@H]2O[C@@](C)([C@@H]1OC)n1c3ccccc3c3c4c(c5c6ccccc6n2c5c31)C(=O)N[C@H]4O` [UCN-01], the “absolute EC50 for viability” value in assay [1] turned out to be 0.643 µM. The same compound gave a drug sensitivity score in assay [2] of 13.3.

Regarding `CCn1c(-c2nonc2N)nc2c(C#CC(C)(C)O)ncc(OC[C@H]3CCCNC3)c21`, in assay [1], the “absolute EC50 for viability” value is over 10 µM. The drug sensitivity score in assay [2] stood at 6.3.

As for `CC(C)(O)CC(=O)NCCn1ccc2ncnc(Nc3ccc(Oc4cccc(C(F)(F)F)c4)c(Cl)c3)c21` [TAK-285], the “absolute EC50 for viability” value in assay [1] is over 2.5 µM. Further, in assay [2], the drug sensitivity score is 0.4.

Take `CNC(=O)c1ccc(N2C(=S)N(c3ccc(C#N)c(C(F)(F)F)c3)C(=O)C2(C)C)cc1F` [Enzalutamide]: the “absolute EC50 for viability” value in assay [1] is over 10 µM. Besides, the drug sensitivity score in assay [2] was found to be 0.

`COc1cc(OC)cc(N(CCNC(C)C)c2ccc3ncc(-c4cnn(C)c4)nc3c2)c1` [Erdafitinib]: in assay [1], the “absolute EC50 for viability” value was over 1 µM. The drug sensitivity score in assay [2] turned out to be 2.2.

For the compound `C[C@H](Nc1ncnc2nc[nH]c12)c1cc2cccc(Cl)c2c(=O)n1-c1ccccc1` [Duvelisib], the “absolute EC50 for viability” value in assay [1] was over 0.5 µM. This compound came in with a drug sensitivity score in assay [2] of 0.6.

`Cc1nc(Nc2ncc(C(=O)Nc3c(C)cccc3Cl)s2)cc(N2CCN(CCO)CC2)n1` [Dasatinib]: in assay [1], the “absolute EC50 for viability” value was determined as 0.132 µM. The drug sensitivity score in assay [2] amounted to 9.2.

As to `COc1ccc(Cn2ccc3ccc(C(=O)NO)cc32)cc1`, in assay [1], the “absolute EC50 for viability” value is 9.93 µM. In addition, the drug sensitivity score in assay [2] amounted to 0.

As for `O=C(/C=C/c1cccnc1)NCCCCC1CCN(C(=O)c2ccccc2)CC1` [Daporinad], the “absolute EC50 for viability” value in assay [1] was over 1 µM. In assay [2], this compound showed a drug sensitivity score of 0.2.

Consider `CN1CCN(c2nc(C3=C(c4c[nH]c5ccccc45)C(=O)NC3=O)c3ccccc3n2)CC1` [Sotrastaurin], for which the “absolute EC50 for viability” value in assay [1] is over 10 µM. Also, the drug sensitivity score in assay [2] came to 2.8.

On to `CCS(=O)(=O)N1CCN(c2ccc(Nc3ncc(C(N)=O)c(NC4CC4)n3)cc2)CC1` [Cerdulatinib], for which the “absolute EC50 for viability” value in assay [1] is over 10 µM. Also, the drug sensitivity score in assay [2] worked out at 5.1.

As for `CO[C@@]12[C@H](COC(N)=O)C3=C(C(=O)C(C)=C(N)C3=O)N1C[C@@H]1N[C@@H]12` [Mitomycin], the “absolute EC50 for viability” value in assay [1] was over 10 µM. This compound yielded a drug sensitivity score in assay [2] of 0.

As for `CCCCc1nc2cc(/C=C/C(=O)NO)ccc2n1CCN(CC)CC` [Pracinostat], in assay [1], the “absolute EC50 for viability” value was determined as 1.56 µM. In addition, the drug sensitivity score in assay [2] came to 8.8.

Turning to `COc1ccccc1S(=O)(=O)Nc1ccc2c(c1)CN(C)C(=O)N2` [PFI-1], in assay [1], the “absolute EC50 for viability” value was over 30 µM. This compound also registered a drug sensitivity score in assay [2] of 1.9.

`O=C1CCC(N2C(=O)c3ccccc3C2=O)C(=O)N1` (centres undefined) [Thalidomide]: in assay [1], the “absolute EC50 for viability” value is over 10 µM. The compound also gave a drug sensitivity score in assay [2] of 0.

Take `C[C@@H]1CN(Cc2ccc(F)cc2)[C@@H](C)CN1C(=O)c1cc2c(C(=O)C(=O)N(C)C)cn(C)c2cc1Cl` [Talmapimod]: the “absolute EC50 for viability” value in assay [1] was over 10 µM. For the same compound, the drug sensitivity score in assay [2] was determined as 0.

`CCNC(=O)C[C@@H]1N=C(c2ccc(Cl)cc2)c2cc(OC)ccc2-n2c(C)nnc21` [Molibresib]: the “absolute EC50 for viability” value in assay [1] was over 10 µM. Besides, in assay [2], the drug sensitivity score was 3.3.

As for `c1cn2cc(-c3ccc4cn[nH]c4c3)nc(Nc3ccc(N4CCOCC4)cc3)c2n1` [Entospletinib], in assay [1], the “absolute EC50 for viability” value was over 5 µM. The compound further gave a drug sensitivity score in assay [2] of 0.

Consider `CNC(=O)c1cc(Oc2ccc(NC(=O)Nc3ccc(Cl)c(C(F)(F)F)c3)c(F)c2)ccn1` [Regorafenib], for which the “absolute EC50 for viability” value in assay [1] was over 10 µM. The compound further showed a drug sensitivity score in assay [2] of 0.7.

Turning to `CN1CCN(C2CCN(C(=O)Nc3cc(Oc4ccc(NC(=O)C5(C(=O)Nc6ccc(F)cc6)CC5)c(F)c4)ccn3)CC2)CC1` [Golvatinib], the “absolute EC50 for viability” value in assay [1] was over 2.5 µM. This compound gave a drug sensitivity score in assay [2] of 2.7.

Take `CCCC(CCC)C(=O)O` [Valproic acid]: in assay [1], the “absolute EC50 for viability” value is over 1000 µM. This compound displayed a drug sensitivity score in assay [2] of 0.

Consider `Cn1nccc1Nc1nccc(-c2ccn([C@H](CO)c3ccc(Cl)c(F)c3)c(=O)c2)n1` [Ravoxertinib], for which the “absolute EC50 for viability” value in assay [1] is over 10 µM. In assay [2], this compound yielded a drug sensitivity score of 0.

As for `Cc1nc(C(=O)NCC(=O)O)c(O)c2ccc(Oc3ccccc3)cc12` [Roxadustat], the “absolute EC50 for viability” value in assay [1] was over 10 µM. Moreover, the drug sensitivity score in assay [2] turned out to be 0.5.

For the compound `O=C(Nc1ccc(OC(F)(F)Cl)cc1)c1cnc(N2CC[C@@H](O)C2)c(-c2cc[nH]n2)c1` [Asciminib], in assay [1], the “absolute EC50 for viability” value is over 1 µM. Besides, the drug sensitivity score in assay [2] is 0.

`C=CC(=O)Nc1cccc(Nc2nc(Nc3ccc(N4CCN(C(C)=O)CC4)cc3OC)ncc2C(F)(F)F)c1` [Rociletinib]: the “absolute EC50 for viability” value in assay [1] stood at 2.86 µM. This compound also yielded a drug sensitivity score in assay [2] of 5.8.

`Cn1c(=O)n(-c2ccc(C(C)(C)C#N)cc2)c2c3cc(-c4cnc5ccccc5c4)ccc3ncc21` [Dactolisib]: in assay [1], the “absolute EC50 for viability” value came to 0.114 µM. The drug sensitivity score in assay [2] came out at 10.7.

Consider `O=C(O)c1ccc(-c2c[nH]c3ncc(-c4ccccc4)cc23)cc1C1CCCC1`, for which the “absolute EC50 for viability” value in assay [1] is over 10 µM. Further, the drug sensitivity score in assay [2] is 0.7.

For `O=C(O)C1(C(=O)O)CCC1.[NH2-].[NH2-].[Pt+2]` [Carboplatin], the “absolute EC50 for viability” value in assay [1] is over 100 µM. The compound further displayed a drug sensitivity score in assay [2] of 2.5.

`OC[C@H]1O[C@@H](n2cnc3c2N=CNC[C@H]3O)C[C@@H]1O` [Pentostatin]: in assay [1], the “absolute EC50 for viability” value was over 10 µM. The same compound yielded a drug sensitivity score in assay [2] of 0.4.

Consider `O=C(c1ccc(F)c(F)c1Nc1ccc(I)cc1F)N1CC(O)([C@@H]2CCCCN2)C1` [Cobimetinib], for which, in assay [1], the “absolute EC50 for viability” value is over 1 µM. For the same compound, the drug sensitivity score in assay [2] was found to be 4.3.

As for `Cc1c(C(=O)Nc2ccc(N3C[C@@H](C)O[C@@H](C)C3)nc2)cccc1-c1ccc(OC(F)(F)F)cc1` [Sonidegib], the “absolute EC50 for viability” value in assay [1] was over 10 µM. Further, the drug sensitivity score in assay [2] was determined as 0.

Regarding `Cc1noc2c1-c1ccccc1C(c1ccc(Cl)cc1)=N[C@H]2CC(N)=O` [CPI-0610], in assay [1], the “absolute EC50 for viability” value was over 10 µM. In assay [2], this compound displayed a drug sensitivity score of 0.

For `Cn1cnc2c(F)c(Nc3ccc(Br)cc3Cl)c(C(=O)NOCCO)cc21` [Selumetinib], in assay [1], the “absolute EC50 for viability” value is over 10 µM. For the same compound, the drug sensitivity score in assay [2] is 4.9.

With `Cc1ccc(NC(=O)c2ccc(CN3CCN(C)CC3)cc2)cc1Nc1nccc(-c2cccnc2)n1` [Imatinib], the “absolute EC50 for viability” value in assay [1] was over 10 µM. In addition, the drug sensitivity score in assay [2] was determined as 5.8.

As for `C[C@H](Nc1ncnc2[nH]cnc12)c1cc2ccc(F)cc2nc1-c1ccccn1` [AMG319], the “absolute EC50 for viability” value in assay [1] is over 1 µM. This compound also yielded a drug sensitivity score in assay [2] of 0.1.

As to `CC(C)[C@H]1C(=O)N[C@@H](CCCNC(=N)N)C(=O)NCC(=O)N[C@@H](CC(=O)O)C(=O)N[C@H](Cc2ccccc2)C(=O)N1C` [Cilengitide], the “absolute EC50 for viability” value in assay [1] is over 10 µM. Moreover, the drug sensitivity score in assay [2] was determined as 1.4.

Regarding `COc1cc(N2CCC(N3CCN(C)CC3)CC2)ccc1Nc1ncnc(Nc2ccccc2S(=O)(=O)C(C)C)n1` [ASP3026], the “absolute EC50 for viability” value in assay [1] amounted to 2.29 µM. This compound displayed a drug sensitivity score in assay [2] of 6.5.

Consider `CC[C@H](NC(=O)[C@H](C)NC)C(=O)N1C[C@@H](O)C[C@H]1Cc1c(-c2[nH]c3cc(F)ccc3c2C[C@@H]2C[C@H](O)CN2C(=O)[C@H](CC)NC(=O)[C@H](C)NC)[nH]c2cc(F)ccc12` [Birinapant], for which the “absolute EC50 for viability” value in assay [1] is over 1 µM. The compound also had a drug sensitivity score in assay [2] of 0.

Consider `NC(=O)c1cccc2cn(-c3ccc([C@@H]4CCCNC4)cc3)nc12` [Niraparib], for which, in assay [1], the “absolute EC50 for viability” value is over 10 µM. Further, in assay [2], the drug sensitivity score worked out at 0.8.

Regarding `Cc1cc(-c2nc(-c3ccc(OC(F)(F)F)cc3)no2)nn1Cc1ccnc(N2CCN(C3CC3)CC2)c1` [BAY 87-2243], the “absolute EC50 for viability” value in assay [1] is over 1 µM. This compound gave a drug sensitivity score in assay [2] of 0.

With `O=C1c2c(O)ccc(O)c2C(=O)c2c(NCCNCCO)ccc(NCCNCCO)c21` [Mitoxantrone], the “absolute EC50 for viability” value in assay [1] worked out at 0.185 µM. In assay [2], this compound registered a drug sensitivity score of 8.

With `Nc1cc(F)ccc1NC(=O)/C=C/c1cnn(C/C=C/c2ccccc2)c1` [RGFP966], in assay [1], the “absolute EC50 for viability” value was over 10 µM. The compound also showed a drug sensitivity score in assay [2] of 0.6.

These data come from the supplement of paper PMC9103864.
